Laboratory results published in paper PMC9563075, “Identification and Structure–Activity Relationship of Recovered Phenolics with Antioxidant and Antihyperglycemic Potential from Sugarcane Molasses Vinasse” (Foods, 2022).
“And” between values parts separate entries of the source, which are not always exact repeats. Identical values can stand only once.

Legend:
[1] = Oxygen radical scavenging capacity (ORAC) assay; settings: for ORAC value: Trolox equivalents per 1 g of compound, mean ± SD, n = 3; for decrease of ORAC antioxidant activity relative to 4-hydroxybenzoic acid: additional methoxy group(s) in ortho-positions of the p-OH
Method: The antioxidant activity of compounds was measured using the ORAC assay according to a previous method. Briefly, 150 μL 8.16 × 10^−5 mM fluorescein working solution was added to the inner wells of a 96-well microplate. Then the plate was incubated at 37 °C for 10 min, after which another 25 μL diluted antioxidants were added using Trolox as standard and 75 mM buffer solution as blank. The plate was shaken every 3 min during the incubation. […] All samples were analyzed in triplicate at three different dilutions. ORAC values were expressed as mean micromoles of Trolox equivalents (TE) per 1 g of the compound.

α-amylase (EC3.2.1.1) = test: α-Amylase inhibition assay; type: biochemical; settings: for IC50: mean ± SD, samples in 30% (v/v) ethanol-PBS
Method: The inhibition assay with the α-amylase was performed as a previously reported protocol with a slight modification. […] Then, 1 U mL^−1 α-amylase (EC3.2.1.1), soluble starch solution (1%, w/v) and 3,5-dinitrosalicylic acid (DNS) were all dissolved in PBS (50 mM, pH 6.9). The mixed system contained a 500 μL sample or blank solution and 500 μL α-amylase incubated at 37 °C for 10 min, followed by the addition of 500 μL of preheated starch solution into the mixed incubated system to initiate the enzymatic hydrolysis reaction (37 °C, 10 min). Finally, 1 mL of DNS was added to halt the reaction, and the mixture was then allowed to sit in boiling water for 5 min. The absorbance was measured at 540 nm using a microplate reader (SpectraMax 190, Molecular Devices Co., Sunnyvale, CA, USA) at room temperature. The inhibition rate of the samples was calculated using the following equation: Inhibition rate (%)=[1−(Asample−Asample blank)/(Acontrol−Acontrol blank)]×100 where Asample, Asample blank, Acontrol, Acontrol blank represent the absorbance of the presence and absence of enzymes in sample solutions, and the absorbance of the presence and absence of enzymes in buffer solutions. The half-maximal inhibitory concentration (IC50) of each compound was obtained by regression analysis.

[2] = target: α-glucosidase (EC3.2.1.20); test: α-Glucosidase inhibition assay; type: biochemical; settings: mean ± SD; samples in 30% (v/v) ethanol-PBS
Method: The inhibition assay with the α-glucosidase was carried out as a previously described protocol. […] The incubated system contained 50 μL of samples and 100 μL of the α-glucosidase solution was added to a 96-well plate at 37 °C for 10 min. Then, 50 μL of the substrate pNP-α-G was added to start the reaction at 37 °C. After 10 min, 100 μL of 1 M Na2CO3 solution was added to inactivate α-glucosidase and halt the generation of substrates, and the absorbance was read at 405 nm with the micro-plate reader (SpectraMax 190, Molecular Devices Co., Sunnyvale, CA, USA). The percentage of inhibition and the values of IC50 of samples were calculated by the same equation as α-amylase inhibition assay.

[3] = Dissolution in 30% (v/v) ethanol-water solvent system; type: physicochemical; settings: high-concentration
HepG2 cells = test: Cellular antioxidant activity (CAA) assay; type: cell-based; settings: for CAA value: converted from EC50, quercetin equivalents; for EC50: Homo sapiens, HepG2, HepG2 cells
Method: HepG2 cells (ATCC Co., Manassas, VA, USA) were incubated in DMEM with 1% penicillin-streptomycin and 10% FBS and maintained at 37 °C with 5% CO2. The modified methylene blue assay was used to determine cytotoxicity.
The CAA assay was performed, according to Wolfe et al., with slight modification. In brief, 6 × 10^4 HepG2 cells were placed in each well of a black-walled 96-microwell plate. 200 μL of PBS was added to the edge of the plate to prevent the edge effect. After adherence, cells were treated with a range of concentrations of benzoic acid derivatives and a standard (quercetin) containing 50 μM DCFH-DA for 1 h under the same culture condition. After removing the supernatant medium, the cells were washed with or without PBS. Then promptly added 600 μM ABAP into each well except blank groups before reading at 485 nm excitation and 538 nm emission using a multifunctional microplate detector (Molecular Devices, Sunnyvale, CA, USA). The fluorescence values were recorded every 5 min for 1 h. The CAA values were obtained by converting the EC50 values and presented as μmol quercetin equivalents (QE)/100 μmol.

IC50 (α-amylase (EC3.2.1.1)) [mM] | IC50 [2] [mM] | Compound | ORAC value [1] [μmol TE/g] | other results
 |  | COc1cc(C(=O)Cl)c(O)c(O)c1O [Compound 1, 2,3,4-trihydroxy-5-methoxy benzoyl chloride] | 4094.6 ± 32.1 | 
40.5 ± 0.44 | 26.1 ± 0.67 | COc1ccc(O)c(C(=O)O)c1 [Compound 2, 2-hydroxy-5-methoxybenzoic acid] | 32648.1 ± 2181.8 | 
 |  | CC(=O)SC(C)=O [Compound 3, acetyl sulfide] | 1.3 ± 0.2 | 
36 ± 2.23 | 30.5 ± 1.02 | O=C(O)c1cc(O)ccc1O [Compound 4, gentisic acid] | 23113.1 ± 1057.9 | 
 |  | COc1ccc(C(=O)O)cc1O [Compound 5, 3-hydroxy-4-methoxybenzoic acid] | 20705.9 ± 835.9 | solubility in 30% (v/v) ethanol-water system [3]: cannot be dissolved
 |  | Cc1cncc(CC(O)C(O)CO)n1 (stereo not shown) [Compound 9, 2-methyl-6-(2′,3′,4′-trihydroxybutyl)-pyrazine] | 78.0 ± 2.9 | 
 |  | COc1cc(OC2OC(CO)C(O)C(O)C2O)cc(O)c1OC [Compound 10, 3-hydroxy-4,5-dimethoxyphenyl-β-D-glucopyranoside] | 4177.5 ± 324.2 | 
 |  | COc1ccc(OC2OC(CO)C(O)C(O)C2O)cc1OC [Compound 11, 3,4-dimethoxyphenyl-O-β-D-glucopyranoside] | 56.5 ± 2.8 | 
 |  | COc1cc(OC)c(OC2OC(CO)C(O)C(O)C2O)c(OC)c1 [Compound 12, 2,4,6-trimethoxyphenyl-1-O-β-D-glucopyranoside] | 80.2 ± 2.3 | 
> 100 | 20.3 ± 0.39 | COc1cc(C(=O)O)cc(OC)c1O [Compound 13, syringic acid] | 1879.9 ± 44.7 | decrease of ORAC antioxidant activity relative to 4-hydroxybenzoic acid [1]: 7.91 folds
 |  | COc1ccc(OC)cc1 [Compound 14, 1,4-dimethoxybenzene] | 2154.2 ± 183.1 | 
 |  | O=c1c(O)c(-c2ccc(O)c(O)c2)oc2cc(O)cc(O)c12 [Quercetin, quercetin, reference compound] |  | EC50 (HepG2 cells; PBS wash protocol): 0.013 mM; EC50 (HepG2 cells; no PBS wash protocol): 0.00509 mM

Compound | IC50 (α-amylase (EC3.2.1.1)) [mM] | IC50 [2] [mM] | ORAC value [1] [μmol TE/g] | other results
O=C(O)c1ccc(O)cc1 [Compound 7, 4-hydroxybenzoic acid] | > 100 | 34.1 ± 1.51 | 14874.9 ± 599.2 | α-amylase inhibition (in words) (α-amylase (EC3.2.1.1)): did not show any inhibition effect
COc1cc(C(=O)O)ccc1O [Compound 8, vanillic acid] | > 100 | 29.7 ± 0.33 | 12945.8 ± 1419.3 | decrease of ORAC antioxidant activity relative to 4-hydroxybenzoic acid [1]: 1.15 folds; cellular uptake rate (CAA value of the PBS wash/no PBS wash × 100%) (HepG2 cells; HepG2 cells): 71.53%; CAA value (HepG2 cells; HepG2 cells, PBS wash protocol): 6.18 μmol QE/100 μmol and 6.18 ± 0.09 μmol QE/100 μmol; CAA value (HepG2 cells; HepG2 cells, no PBS wash protocol): 8.64 μmol QE/100 μmol and 8.64 ± 0.53 μmol QE/100 μmol; EC50 (HepG2 cells; PBS wash protocol): 0.21 ± 0.00322 mM; EC50 (HepG2 cells; no PBS wash protocol): 0.0591 ± 0.00374 mM
